From patent US20250282754A1, “BICYCLIC COMPOUNDS AND THEIR USE AS PEST CONTROL AGENTS” (Pl Industries Ltd., priority 2022, published 2025)

Columns and labels:
Assay type in all cases: in vivo
[1] = tested on: Bemisia tabaci; test: Bemisia tabaci leaf dip test (brinjal leaves, whitefly adults); conditions: foliar, dead and moribund whitefly adults 72 h after release, compared to untreated controls, read-out: percent mortality
Procedure, shortened: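 Brinjal leaves were dipped 10 s in compound diluted in 0.01% Triton-X, dried, and placed on agar, then exposed to freshly emerged whitefly adults at 25° C, 70% RH. Dead plus moribund adults were counted at 72 h, and percent mortality was calculated relative to untreated controls.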

[2] = tested on: Nilaparvata lugens; test: Nilaparvata lugens seedling dip test (paddy seedlings, third instar nymphs); conditions: dead and moribund third instar nymphs 72 h after release, compared to untreated controls, read-out: percent mortality
Procedure, shortened: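 Paddy seedlings dipped 10 s in compound diluted with 0.01% Triton-X, shade dried, then infested with 15 third-instar nymphs at 25 °C, 75% RH. Mortality (dead plus moribund) scored at 72 h relative to untreated controls.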

[3] = tested on: Myzus persicae; test: Myzus persicae leaf dip test (capsicum leaves, third instar nymphs); conditions: foliar, dead and moribund third instar nymphs 72 h after release, compared to untreated controls, read-out: percent mortality
Method: The leaf dip method was used for testing, wherein the required quantity of the compound was weighed and dissolved in a tube containing a solvent solution. The tube was put on a vortex at 2000 rpm for proper mixing and then diluted with a 0.01% Triton-X solution to the desired test concentration. Capsicum leaves were dipped in the compound solution for 10 seconds, shade dried for 20 min and then placed, with the abaxial side of the leaf up, in single cells of a bio-assay tray containing 4 ml of a solidified 1% agar-agar solution. Known numbers of third instar nymphs of Myzus persicae, collected in petri plates, were released into the cell with the treated leaf and the cell was covered with a perforated lid for better aeration. The trays were kept in a plant growth chamber at a temperature of 25° C. and a relative humidity of 70%. Observations on dead, moribund and alive nymphs were recorded 72 h after the release. Percent mortality was calculated by combining dead and moribund nymphs and comparing the result with the one of the untreated controls. The compounds

Structure (SMILES) | mortality at 300 ppm [1] [%] | mortality at 300 ppm [2] [%] | mortality at 300 ppm [3] [%]
N=S(=O)(CC1CC1)c1ccc2nn(-c3cccnc3)cc2c1 (centres unmarked) [Compound 386, (cyclopropylmethyl)(imino)(2-(pyridin-3-yl)-2H-indazol-5-yl)-λ^6-sulfanone] | ≥ 70 | ≥ 70 | ≥ 70
CCN=S(=O)(c1ccc2nn(-c3cncnc3)cc2c1)C(C)C (centres unmarked) [Compound 419] | ≥ 70 | ≥ 70 | ≥ 70
CCS(=O)(CC)=Nc1ccc2nn(-c3cccnc3)cc2c1 [Compound 3] |  | ≥ 70 | ≥ 70
CCN=S(=O)(CC)c1ccc2nn(-c3cncc(F)c3)cc2c1 (centres unmarked) [Compound 461] | ≥ 70 | ≥ 70 | ≥ 70
CCN=S(=O)(CC)c1ccc2nn(-c3cncnc3)cc2c1 (centres unmarked) [Compound 457] | ≥ 70 | ≥ 70 | ≥ 70
CCC(C)S(=N)(=O)c1ccc2nn(-c3cncc(F)c3)cc2c1 (centres unmarked) [Compound 479, sec-butyl(2-(5-fluoropyridin-3-yl)-2H-indazol-5-yl)(imino)-λ^6-sulfanone] | ≥ 70 |  | ≥ 70
CCN=S(=O)(c1ccc2nn(-c3cccnc3)cc2c1)C(C)C (centres unmarked) [Compound 383] | ≥ 70 |  | ≥ 70
CC(C)S(C)(=O)=Nc1ccc(Cl)c2nn(-c3cccnc3)cc12 (centres unmarked) [Compound 218] | ≥ 70 |  | ≥ 70
CCS(C)(=O)=Nc1ccc2nn(-c3cncnc3)cc2n1 (centres unmarked) [Compound 314] | ≥ 70 |  | ≥ 70
COc1nn(-c2ccc3nn(-c4cccnc4)cc3c2)c(=O)n1Cc1ccc(Cl)cc1 [Compound 354, 4-(4-chlorobenzyl)-5-methoxy-2-(2-(pyridin-3-yl)-2H-indazol-5-yl)-2,4-dihydro-3H-1,2,4-triazol-3-one] | ≥ 70 | ≥ 70 | ≥ 70
CC(C)CS(=N)(=O)c1ccc2nn(-c3cccnc3)cc2c1 (centres unmarked) [Compound 557, imino(isobutyl)(2-(pyridin-3-yl)-2H-indazol-5-yl)-λ^6-sulfanone] | ≥ 70 |  | ≥ 70
CCS(C)(=O)=Nc1cnc2nn(-c3cccnc3)cc2c1 (centres unmarked) [Compound 147] |  | ≥ 70 | ≥ 70
N=S(=O)(CCCF)c1ccc2nn(-c3cncc(F)c3)cc2c1 (centres unmarked) [Compound 482, (3-fluoropropyl)(2-(5-fluoropyridin-3-yl)-2H-indazol-5-yl)(imino)-λ^6-sulfanone] | ≥ 70 |  | ≥ 70
COc1nn(-c2ccc3nn(-c4cncnc4)cc3c2)c(=O)n1C [Compound 119, 5-methoxy-4-methyl-2-(2-(pyrimidin-5-yl)-2H-indazol-5-yl)-2,4-dihydro-3H-1,2,4-triazol-3-one] | ≥ 70 |  | ≥ 70
CC(C)S(=O)(CC1CC1)=Nc1ccc2nn(-c3cccnc3)cc2n1 (centres unmarked) [Compound 288] | ≥ 70 |  | ≥ 70
CCS(=O)(=Nc1ccc2nn(-c3cncc(F)c3)cc2n1)C(C)C (centres unmarked) [Compound 312] | ≥ 70 |  | ≥ 70
CCS(C)(=O)=Nc1ccc2nn(-c3cccnc3)cc2n1 (centres unmarked) [Compound 248] | ≥ 70 |  | ≥ 70
CC(C)S(=O)(=Nc1ccc2nn(-c3cccnc3)cc2n1)C(C)C [Compound 255] | ≥ 70 |  | ≥ 70
O=S(CCC(F)(F)F)(=Nc1ccc2nn(-c3cncnc3)cc2c1)c1ccc(F)cc1 (centres unmarked) [Compound 64] |  | ≥ 70 | ≥ 70
CCC(C)S(=O)(=Nc1ccc2nn(-c3cccnc3)cc2n1)C(C)C (centres unmarked) [Compound 287] | ≥ 70 |  | ≥ 70
CCS(=O)(CC)=Nc1cccc2nn(-c3cccnc3)cc12 [Compound 73] | ≥ 70 | ≥ 70 | ≥ 70
CCS(C)(=O)=Nc1ccc2nn(-c3cccnc3)cc2c1 (centres unmarked) [Compound 2] |  | ≥ 70 | ≥ 70
CC(C)S(C)(=O)=Nc1ccc2nn(-c3cccnc3)cc2n1 (centres unmarked) [Compound 238] | ≥ 70 | ≥ 70 | ≥ 70
COc1nn(-c2ccc3nn(-c4cncc(F)c4)cc3c2)c(=O)n1C [Compound 112, 2-(2-(5-fluoropyridin-3-yl)-2H-indazol-5-yl)-5-methoxy-4-methyl-2,4-dihydro-3H-1,2,4-triazol-3-one] |  | ≥ 70 | ≥ 70

Structure (SMILES) | mortality at 300 ppm [1] [%] | mortality at 300 ppm [2] [%] | mortality at 300 ppm [3] [%]
CCS(=O)(=Nc1ccc2nn(-c3cccnc3)cc2n1)C(C)C (centres unmarked) [Compound 240] | ≥ 70 | ≥ 70 | ≥ 70
CCS(=O)(=Nc1ccc2nn(-c3cncnc3)cc2c1)C(C)C (centres unmarked) [Compound 32] | ≥ 70 | ≥ 70 | ≥ 70
CCCS(=O)(CC)=Nc1ccc2nn(-c3cccnc3)cc2c1 (centres unmarked) [Compound 137] |  | ≥ 70 | ≥ 70
CS(C)(=O)=Nc1cnc2nn(-c3cccnc3)cc2c1 [Compound 146] |  | ≥ 70 | ≥ 70
CCS(=N)(=O)c1ccc2nn(-c3cccnc3)cc2c1 (centres unmarked) [Compound 387, ethyl(imino)(2-(pyridin-3-yl)-2H-indazol-5-yl)-λ^6-sulfanone] | ≥ 70 | ≥ 70 | ≥ 70
COc1nn(-c2ccc3nn(-c4cccnc4)cc3c2)c(=O)n1C [Compound 110, 5-methoxy-4-methyl-2-(2-(pyridin-3-yl)-2H-indazol-5-yl)-2,4-dihydro-3H-1,2,4-triazol-3-one] | ≥ 70 |  | ≥ 70
COCCS(C)(=O)=Nc1ccc2nn(-c3cccnc3)cc2n1 (centres unmarked) [Compound 236] | ≥ 70 | ≥ 70 | ≥ 70
CCN=S(=O)(CC1CC1)c1ccc2nn(-c3cccnc3)cc2c1 (centres unmarked) [Compound 388] |  | ≥ 70 | ≥ 70
N=S(=O)(CC(F)(F)F)c1ccc2nn(-c3cncnc3)cc2c1 (centres unmarked) [Compound 458, imino(2-(pyrimidin-5-yl)-2H-indazol-5-yl)(2,2,2-trifluoroethyl)-λ^6-sulfanone] | ≥ 70 |  | ≥ 70
CS(=O)(=Nc1ccc2nn(-c3cccnc3)cc2n1)C1CCCCC1 (centres unmarked) [Compound 216] | ≥ 70 |  | ≥ 70
CCC(CC)S(=N)(=O)c1ccc2nn(-c3cncc(F)c3)cc2c1 (centres unmarked) [Compound 480, (2-(5-fluoropyridin-3-yl)-2H-indazol-5-yl)(imino)(pentan-3-yl)-λ^6-sulfanone] | ≥ 70 |  | ≥ 70
CCCS(=O)(=Nc1ccc2nn(-c3cccnc3)cc2n1)C(C)C (centres unmarked) [Compound 254] | ≥ 70 |  | ≥ 70
CCCS(C)(=O)=Nc1ccc2nn(-c3cccnc3)cc2n1 (centres unmarked) [Compound 239] | ≥ 70 |  | ≥ 70
CC(C)S(=O)(=NC1CC1)c1ccc2nn(-c3cccnc3)cc2c1 (centres unmarked) [Compound 406] | ≥ 70 | ≥ 70 | ≥ 70
CS(C)(=O)=Nc1ccc2nn(-c3cccnc3)cc2c1 [Compound 1] | ≥ 70 | ≥ 70 | ≥ 70
CCS(=O)(=Nc1cnc2nn(-c3cccnc3)cc2c1)C(C)C (centres unmarked) [Compound 148] |  | ≥ 70 | ≥ 70
CCn1c(OC)nn(-c2ccc3nn(-c4cccnc4)cc3c2)c1=O [Compound 123, 4-ethyl-5-methoxy-2-(2-(pyridin-3-yl)-2H-indazol-5-yl)-2,4-dihydro-3H-1,2,4-triazol-3-one] | ≥ 70 |  | ≥ 70
CS(C)(=O)=Nc1ccc2nn(-c3cccnc3)cc2n1 [Compound 224] | ≥ 70 |  | ≥ 70
CCC(C)S(=O)(=Nc1ccc2nn(-c3cccnc3)cc2c1)C(C)C (centres unmarked) [Compound 291] | ≥ 70 |  | ≥ 70
CS(C)(=O)=NC(=O)c1cccc2nn(-c3cccnc3)cc12 [Compound 92, N-(dimethyl(oxo)-λ^6-sulfaneylidene)-2-(pyridin-3-yl)-2H-indazole-4-carboxamide] |  | ≥ 70 | ≥ 70
CCCS(=N)(=O)c1ccc2nn(-c3cncc(F)c3)cc2c1 (centres unmarked) [Compound 478, (2-(5-fluoropyridin-3-yl)-2H-indazol-5-yl)(imino)(propyl)-λ^6-sulfanone] | ≥ 70 |  | ≥ 70
COCCS(C)(=O)=Nc1ccc2nn(-c3cncnc3)cc2n1 (centres unmarked) [Compound 237] | ≥ 70 |  | ≥ 70
CCS(=O)(=Nc1ccc2nn(-c3cncc(F)c3)cc2c1)C(C)C (centres unmarked) [Compound 41] |  | ≥ 70 | ≥ 70
